Molecular target: T1, USP7 CD + UBL 1-5 (Homo sapiens, UniProt Q93009)
T1 construct: USP7 CD +
Test: Surface plasmon resonance assay (SPR)
Type: binding
Conditions: kinetic KD; read-out: SPR USP7 CD + UBL 1-5 (KD_kinetic)
Method: The surface plasmon resonance experiments were performed using a Cytiva (formerly GE Healthcare) Biacore 8K equipped with a Series S Sensor Chip SA. The ligands were immobilized via a biotin-modified biotin acceptor peptide. USP7 Ligands were diluted in running buffer (HBS-P+2% DMSO; 10 mM HEPES, pH 7.4, 150 mM NaCl, 1 mM DTT, 0.05% P20, 2% DMSO) to 100 μg/mL and injected at […] until a density between 500-10,000 RU was reached on flow-cell two of each channel, and flow cell one was left blank to serve as a reference surface. Both surfaces were washed until a stable baseline was achieved then 30 startup cycles to condition the surface. To collect kinetic and steady-state binding data, the small molecule analytes were prepared in three-fold dilution series in HBS-P+2% DMSO running buffer. Analytes were injected over both flow cells at a flow rate of […] at 25° C. The complex was allowed to associate for 60 seconds and dissociate for 300 seconds. Data were collected at 10 Hz. The data were fit to a simple 1:1 interaction model global data analysis within Cytiva Biacore Insight Evaluation Software.

T1 sequence (Q93009 208-1102 limits assumed): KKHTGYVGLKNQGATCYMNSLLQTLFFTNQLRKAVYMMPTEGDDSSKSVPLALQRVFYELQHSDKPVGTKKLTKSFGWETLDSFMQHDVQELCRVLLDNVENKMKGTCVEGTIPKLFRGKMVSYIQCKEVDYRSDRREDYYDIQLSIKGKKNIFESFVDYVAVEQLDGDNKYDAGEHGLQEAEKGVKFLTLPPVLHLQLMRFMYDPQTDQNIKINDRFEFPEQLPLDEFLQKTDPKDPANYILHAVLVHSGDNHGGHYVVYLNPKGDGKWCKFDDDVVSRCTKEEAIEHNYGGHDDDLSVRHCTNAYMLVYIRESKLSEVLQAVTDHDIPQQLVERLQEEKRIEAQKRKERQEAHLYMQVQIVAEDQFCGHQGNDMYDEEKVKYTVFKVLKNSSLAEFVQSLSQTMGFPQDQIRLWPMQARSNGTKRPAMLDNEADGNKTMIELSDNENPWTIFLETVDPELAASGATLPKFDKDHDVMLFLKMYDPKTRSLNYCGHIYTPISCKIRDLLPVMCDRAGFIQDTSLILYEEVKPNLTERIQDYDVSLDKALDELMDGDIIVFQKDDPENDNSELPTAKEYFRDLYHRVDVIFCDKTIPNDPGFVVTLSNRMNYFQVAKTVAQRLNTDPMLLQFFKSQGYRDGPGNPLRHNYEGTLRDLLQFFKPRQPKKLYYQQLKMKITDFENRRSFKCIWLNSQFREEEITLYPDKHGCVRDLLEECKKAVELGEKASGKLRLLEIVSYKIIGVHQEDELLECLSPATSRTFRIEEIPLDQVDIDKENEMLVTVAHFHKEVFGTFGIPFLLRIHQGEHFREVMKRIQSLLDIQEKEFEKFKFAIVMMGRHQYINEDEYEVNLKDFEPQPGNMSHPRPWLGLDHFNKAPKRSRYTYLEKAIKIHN

Kd | SMILES
< 1 µM | C[C@H](CC(=O)N1CCC(O)(Cn2cnc3c(-c4ccc(CNC(=O)CCCCNC(=O)OC(C)(C)C)cc4)n(C)nc3c2=O)CC1)c1ccccc1 [U131]
< 1 µM | C[C@H](CC(=O)N1CCC(O)(Cn2cnc3c(-c4ccc(CNC(=O)CCCCCCNC(=O)OC(C)(C)C)cc4)n(C)nc3c2=O)CC1)c1ccccc1 [U132]
< 1 µM | C[C@H](CC(=O)N1CCC(O)(Cn2cnc3c(-c4ccc(CNC(=O)CCCCCCCNC(=O)OC(C)(C)C)cc4)n(C)nc3c2=O)CC1)c1ccccc1 [U133]
< 1 µM | C[C@H](CC(=O)N1CCC(O)(Cn2cnc3c(-c4ccc(CNC(=O)CCNC(=O)OC(C)(C)C)cc4)n(C)nc3c2=O)CC1)c1ccccc1 [U134]

Same assay, conditions: steady-state KD; read-out: SPR USP7 CD + UBL 1-5 (KD_ss)

SMILES | Kd
O=C(Nc1nc2ccc(NS(=O)(=O)c3cccs3)cc2s1)c1ccn[nH]1 [U118] | 1 to 100 µM
CCC(=O)N1CCC(C(=O)Nc2nc3ccc(NS(=O)(=O)c4cccs4)cc3s2)C1 (centres unmarked) [U122] | 1 to 100 µM
CN1CCN(C(=O)Nc2nc3ccc(NS(=O)(=O)c4cccs4)cc3s2)CC1=O [U123] | > 100 µM
O=C(Nc1nc2ccc(NS(=O)(=O)c3cccs3)cc2s1)N1CCOCC1 [U126] | 1 to 100 µM
C=CC(=O)N1CCC(C(=O)Nc2nc3ccc(NS(=O)(=O)c4cccs4)cc3s2)C1 (centres unmarked) [U129] | 1 to 100 µM

The next lines start with the values.

Kd | SMILES
1 to 100 µM | C#CCCN1CCCn2nc(C(=O)Nc3nc4ccc(NS(=O)(=O)c5cccs5)cc4s3)cc2C1 [U119]
1 to 100 µM | CN1CCCn2nc(C(=O)Nc3nc4ccc(N(C5CCNC5)S(=O)(=O)c5cccs5)cc4s3)cc2C1 (centres unmarked) [U120]
1 to 100 µM | CN1CCCn2nc(C(=O)Nc3nc4ccc(NS(=O)(=O)c5nn6ccccc6c5Cl)cc4s3)cc2C1 [U121]
> 100 µM | CN1CCCn2nc(C(=O)Nc3nc4ccc(NS(=O)(=O)c5cccs5)cc4s3)nc2C1 [U124]
1 to 100 µM | CN1CCCn2nc(C(=O)Nc3nc4ccc(S(=O)(=O)NC5CCNC5)cc4s3)cc2C1 (centres unmarked) [U127]
1 to 100 µM | CN1CCCn2nc(C(=O)Nc3nc4ccc(NS(=O)(=O)C5CCNC5)cc4s3)cc2C1 (centres unmarked) [U128]
1 to 100 µM | CN1CCCn2nc(C(=O)Nc3nc4ccc(NS(=O)(=O)c5cc6ccccn6n5)cc4s3)cc2C1 [U130]

Molecular target: USP7 (Homo sapiens, UniProt Q93009)
Sequence (Q93009 whole entry): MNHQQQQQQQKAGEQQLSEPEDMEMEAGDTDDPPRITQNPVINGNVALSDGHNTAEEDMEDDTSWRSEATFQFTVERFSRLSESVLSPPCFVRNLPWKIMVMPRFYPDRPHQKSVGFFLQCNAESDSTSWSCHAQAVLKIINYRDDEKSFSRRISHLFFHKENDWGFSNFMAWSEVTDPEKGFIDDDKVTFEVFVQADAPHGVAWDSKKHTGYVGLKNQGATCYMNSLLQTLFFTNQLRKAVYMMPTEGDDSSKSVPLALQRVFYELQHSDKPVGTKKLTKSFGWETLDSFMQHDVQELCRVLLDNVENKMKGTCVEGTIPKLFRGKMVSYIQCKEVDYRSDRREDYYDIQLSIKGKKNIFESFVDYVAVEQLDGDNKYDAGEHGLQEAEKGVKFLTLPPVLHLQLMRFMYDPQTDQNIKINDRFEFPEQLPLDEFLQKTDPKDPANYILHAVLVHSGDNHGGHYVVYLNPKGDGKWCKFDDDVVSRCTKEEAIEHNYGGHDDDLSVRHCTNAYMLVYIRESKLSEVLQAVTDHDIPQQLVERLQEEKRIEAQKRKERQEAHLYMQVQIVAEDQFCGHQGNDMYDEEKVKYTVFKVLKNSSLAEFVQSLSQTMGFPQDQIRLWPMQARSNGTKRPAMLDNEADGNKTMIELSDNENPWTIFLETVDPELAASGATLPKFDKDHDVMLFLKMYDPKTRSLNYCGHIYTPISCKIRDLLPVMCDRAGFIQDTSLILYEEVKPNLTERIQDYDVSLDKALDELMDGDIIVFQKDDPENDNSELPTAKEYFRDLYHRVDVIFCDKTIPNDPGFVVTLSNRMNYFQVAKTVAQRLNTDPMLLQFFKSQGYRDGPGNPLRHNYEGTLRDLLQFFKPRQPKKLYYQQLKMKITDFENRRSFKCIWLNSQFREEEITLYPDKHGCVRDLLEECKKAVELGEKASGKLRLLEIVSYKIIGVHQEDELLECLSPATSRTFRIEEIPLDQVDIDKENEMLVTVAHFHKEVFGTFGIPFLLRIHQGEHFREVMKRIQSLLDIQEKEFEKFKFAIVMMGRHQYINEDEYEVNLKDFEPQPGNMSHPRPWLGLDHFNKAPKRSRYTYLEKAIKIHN
Test: Ub-Rho cleavage assay
Type: biochemical
Conditions: Ub-Rho substrate, recombinant USP7; read-out: Ub (Rho) USP7.1 (IC50)
Method: All fluorescence measurements were performed on a Molecular Devices FlexStation3 with excitation at 480 nm and emission 540 nm, PMT Gain: Medium, Flash Number: 10. […] Assay buffer for all measurements was 50 mM HEPES, 100 mM NaCl, 0.5 mM EDTA, 1 mM TCEP, 0.1 mg/ml BSA, 0.01% Tween-20, pH 7.8. […] Serial dilutions were made with a Mosquito HTS (SPT Labtech) nanoliter liquid handler. 200 nL of each compound in duplicate or DMSO control were transferred to the assay plate. The first two columns served as positive controls. 9.8 μl per well of USP7 working solution was added to the assay plate. Compound+Protein was incubated for 25 min at 25° C. 10 uL of Ub-Rho substrate was added per well and incubated for an additional 15 min at 25° C. Fluorescence was then measured. Percent response relative to DMSO controls was calculated in GraphPad or Scinamic, and the data was fitted to a non-linear regression to determine IC50 values.

SMILES | IC50
O=C(Nc1nc2ccc(NS(=O)(=O)c3cccs3)cc2s1)c1ccn[nH]1 [U118] | > 100 µM
CCC(=O)N1CCC(C(=O)Nc2nc3ccc(NS(=O)(=O)c4cccs4)cc3s2)C1 (centres unmarked) [U122] | > 100 µM
CN1CCN(C(=O)Nc2nc3ccc(NS(=O)(=O)c4cccs4)cc3s2)CC1=O [U123] | > 100 µM
O=C(Nc1nc2ccc(NS(=O)(=O)c3cccs3)cc2s1)N1CCOCC1 [U126] | > 100 µM
C=CC(=O)N1CCC(C(=O)Nc2nc3ccc(NS(=O)(=O)c4cccs4)cc3s2)C1 (centres unmarked) [U129] | > 100 µM
C[C@H](CC(=O)N1CCC(O)(Cn2cnc3c(-c4ccc(CNC(=O)CCCCNC(=O)OC(C)(C)C)cc4)n(C)nc3c2=O)CC1)c1ccccc1 [U131] | < 1 µM
C[C@H](CC(=O)N1CCC(O)(Cn2cnc3c(-c4ccc(CNC(=O)CCCCCCNC(=O)OC(C)(C)C)cc4)n(C)nc3c2=O)CC1)c1ccccc1 [U132] | < 1 µM
C[C@H](CC(=O)N1CCC(O)(Cn2cnc3c(-c4ccc(CNC(=O)CCCCCCCNC(=O)OC(C)(C)C)cc4)n(C)nc3c2=O)CC1)c1ccccc1 [U133] | < 1 µM
C[C@H](CC(=O)N1CCC(O)(Cn2cnc3c(-c4ccc(CNC(=O)CCNC(=O)OC(C)(C)C)cc4)n(C)nc3c2=O)CC1)c1ccccc1 [U134] | < 1 µM

Next, values leading:

IC50 | SMILES
> 100 µM | C#CCCN1CCCn2nc(C(=O)Nc3nc4ccc(NS(=O)(=O)c5cccs5)cc4s3)cc2C1 [U119]
> 100 µM | CN1CCCn2nc(C(=O)Nc3nc4ccc(N(C5CCNC5)S(=O)(=O)c5cccs5)cc4s3)cc2C1 (centres unmarked) [U120]
> 100 µM | CN1CCCn2nc(C(=O)Nc3nc4ccc(NS(=O)(=O)c5nn6ccccc6c5Cl)cc4s3)cc2C1 [U121]
1 to 100 µM | CN1CCCn2nc(C(=O)Nc3nc4ccc(NS(=O)(=O)c5cccs5)cc4s3)nc2C1 [U124]
> 100 µM | CN1CCCn2nc(C(=O)Nc3nc4ccc(S(=O)(=O)NC5CCNC5)cc4s3)cc2C1 (centres unmarked) [U127]
> 100 µM | CN1CCCn2nc(C(=O)Nc3nc4ccc(NS(=O)(=O)C5CCNC5)cc4s3)cc2C1 (centres unmarked) [U128]
> 100 µM | CN1CCCn2nc(C(=O)Nc3nc4ccc(NS(=O)(=O)c5cc6ccccn6n5)cc4s3)cc2C1 [U130]
